Results published in US12595281B2, “Indodicarbocyanine phosphoramidites with bathochromically shifted absorption and emission, and tunable hydrophobicity” (The Government of the United States of America, as …, priority 2022, dated 2026).

Experiment: Methanol content to elute DNA-dye sequences from reverse phase HPLC column
Type: physicochemical
Conditions: average over sequences HJA-D and HJAcomp containing the dye
Description: Desalted oligo solutions were then analyzed by liquid chromatography-mass spectrometry (LCMS, see Characterization below for more detail) to confirm the presence of correct sequence in the crude product. Samples containing the confirmed dye-labeled DNA sequences were then pooled and purified by preparatory scale reverse phase HPLC (2707 Autosampler, 2545 Quaternary Gradient Module, 2998 Photodiode Array Detector, and Fraction Collector III, Waters, Inc, Milford, MA) using an XBridge OST C18 OBD 19×50 mm column (Part No. 186008962, Waters, Inc, Milford, MA) with a gradient of increasing methanol in 0.1 M TEAA (aq.). For Cy5-hex, Cy5-Peg and Cy5-tBu containing sequences, LC fractions were concentrated to dryness directly from the 0.1 M TEAA buffer/methanol solution. […] Dried LC fractions were reconstituted in small volumes of water (Optima Grade), to keep concentration sufficiently high (25-50 μM) to visualize and separate low percentage impurities on LCMS. Purified fractions were combined, concentrated, then re-analyzed via LCMS for a final purity assessment.
Due to the overall poor solubility of the parent cyanine dye derivatives in water, the octanol-water partition coefficient (log P) could not be determined by the traditional “shake flask” method. In lieu of this approach, modelling software developed by Advanced Chemistry Development, Inc. was used to predict the partition coefficient and solubility in water (log S0), as shown in Table 2. As an additional means of comparison with direct relevance to the final intended utility of these oligos, the average concentration of methanol required to elute the DNA sequences containing the given dye from the reverse phase HPLC column was determined (the greater the methanol content required to elute, the more hydrophobic the dye). The DNA-dye sequences were utilized for this instead of the free dyes because they are capable of eluting at lower methanol content, but the hydrophobic character of the dye still dominates the elution profile. […] This is in close agreement with the relative “stickiness” of the DNA-dye sequences towards […] stationary phase.

Av. % MeOH for DNA-dye elution	SMILES
30.5%	COc1ccc(C(OCCCN2C(=CC=CC=CC3=[N+](CCCO)c4ccc(Cl)cc4C3(C)C)C(C)(C)c3cc(Cl)ccc32)(c2ccccc2)c2ccccc2)cc1.[I-] [Cy5-Cl, 5,5′-dichloro-1-(3-hydroxypropyl)-1′-(3-monomethoxytritylpropyl)-tetramethyl-dicarboindocyanine iodide]
51%	CCCCCCOc1ccc2c(c1)C(C)(C)C(=CC=CC=CC1=[N+](CCCO)c3ccc(OCCCCCC)cc3C1(C)C)N2CCCOC(c1ccccc1)(c1ccccc1)c1ccc(OC)cc1.[I-] [Cy5-hex, 1-(3-hydroxypropyl)-1′-(3-monomethoxytritylpropyl)-5,5′-bis(n-hexyloxy)-3,3,3′,3′-tetramethyl-dicarboindocyanine iodide]
31.5%	COCCOCCOCCOc1ccc2c(c1)C(C)(C)C(=CC=CC=CC1=[N+](CCCO)c3ccc(OCCOCCOCCOC)cc3C1(C)C)N2CCCOC(c1ccccc1)(c1ccccc1)c1ccc(OC)cc1.[I-] [Cy5-Peg, 1-(3-hydroxypropyl)-1′-(3-monomethoxytritylpropyl)-5,5′-bis{2-[2-(2-methoxyethoxy)ethoxy]ethoxy}-3,3,3′,3′-tetramethyl-dicarboindocyanine iodide]
41%	COc1ccc(C(OCCCN2C(=CC=CC=CC3=[N+](CCCO)c4ccc(C(C)(C)C)cc4C3(C)C)C(C)(C)c3cc(C(C)(C)C)ccc32)(c2ccccc2)c2ccccc2)cc1.[I-] [Cy5-tBu, 1-(3-hydroxypropyl)-1′-(3-monomethoxytritylpropyl)-5,5′-bis(tert-butyl)-3,3,3′,3′-tetramethyl-dicarboindocyanine iodide]
